Columns and labels:
[1] = test system: deposition of melanin pigmentation; test: Examination for depigmentation effect: lotion applied to skin after sunlight exposure, judged by the subjects; format: in vivo; settings: for DEPIGMENTATION EFFECT / DEPI[…]: lotion with 1.0 weight% compound; for effect to prevent the deposition of melanin pigmentation after the skin was exposed to the sunlight: in words, text summary of the tables, test lotions compared with hydroquinone, tranexamic acid and no compound
Protocol: 60 subjects were disposed under sunlight for 4 hours in summer (2 hours × 2 days). The lotions were applied to skin of medial brachia for once in each morning and evening from 5 days after the day when the skin was exposed to the sun light for eight weeks. The one group consists of 10 subjects and six groups were given for the examination in accordance with the following prescriptions. […] The aqueous phase and the alcohol phase were prepared respectively, and both phase were mixed and dissolved. […] X: The number of subjects who judged the result was "extremely effective" and "effective" were less than 30 %. TABLE 1 Depigmentation effect was examined by using the following external preparations for skin in accordance with the above described condition. […] The alcohol phase and aqueous phase were prepared respectively, and both phase were mixed and dissolved. TABLE 3 Depigmentation effect was examined by using the following external preparations for skin in accordance with the above described condition. […] The alcohol phase and aqueous phase were prepared respectively, and both phase were mixed and dissolved.

[2] = test system: face of subjects; test: Examination for skin care effect: half-face application against comparison 1, judged by the subjects; format: in vivo, women
Protocol: One group of subjects consists of ten women and 3 groups of the subjects were given for the examination.
The effectiveness of three items (moisturising effect, texture of skin surface, maintenance (one day) of moisturising effect) were evaluated according to the following standards.
Ⓞ: The number of subjects who judged the result was "extremely effective" and "effective" were not less than 80 %. ○: The number of subjects who judged the result was "extremely effective" and "effective" were from 50% to 80%. △: The number of subjects who judged the result was "extremely effective" and "effective" were from 30% to 50%. X: The number of subjects who judged the result was "extremely effective " and "effective" were less than 30%.
Skin care effect of the examples was examined in accordance with the above-mentioned condition.

[3] = TABLE 1, skin of medial brachia, morning and evening for eight weeks from 5 days after sunlight exposure (4 hours), 10 subjects per group
[4] = TABLE 2, lotion with 1.0 weight% compound on left half of face, every morning and night for two weeks, ten women per group
[5] = TABLE 2, maintenance (one day), lotion with 1.0 weight% compound on left half of face, every morning and night for two weeks, ten women per group
[6] = TABLE 3, same condition as TABLE 1
[7] = TABLE 5, same condition as TABLE 1
[8] = TABLE 4, lotion with 1.0 weight% compound, same condition as TABLE 2
[9] = TABLE 6, lotion with 1.0 weight% compound, same condition as TABLE 2

Compound | DEPIGMENTATION EFFECT [1, 3] | effect to prevent the deposition of melanin pigmentation after the skin was exposed to the sunlight [1] | MOISTURISING EFFECT [2, 4] | TEXTURE OF SKIN SURFACE [2, 4] | MAINTENANCE OF MOISTURISING EFFECT [2, 5] | DEPIGMENTATION EFFECT [1, 7] | other results
NC[C@H]1CC[C@H](C(=O)Oc2ccc(O)c(C(=O)O)c2)CC1 [EXM.1-2, 5-(trans-4-aminomethylcyclohexylcarbonyloxy)-2-hydroxy benzoic acid] | Ⓞ (The number of subjects who judged the result was "extremely effective" and "effective" were not less than 80%.) | excellent | Ⓞ (The number of subjects who judged the result was "extremely effective" and "effective" were not less than 80 %.) | Ⓞ (The number of subjects who judged the result was "extremely effective" and "effective" were not less than 80 %.) | Ⓞ (The number of subjects who judged the result was "extremely effective" and "effective" were not less than 80 %.) |  | 
Oc1ccc(O)cc1 [COMP.2, hydroquinone, reference compound] |  |  |  |  |  |  | DEPI[…] [1, 3]: △ (The number of subjects who judged the result was "extremely effective" and "effective" were from 30% to 50%.); DEPI[…] [1, 6]: △ (The number of subjects who judged the result was "extremely effective" and "effective" were from 30% to 50%.); DEPI[…] [1, 7]: △ (The number of subjects who judged the result was "extremely effective" and "effective" were from 30% to 50%.)
NC[C@H]1CC[C@H](C(=O)NC[C@H]2CC[C@H](C(=O)O)CC2)CC1 [EXM.2-1, Trans-4-(trans-4-aminomethylcyclohexanecarbonyl) aminomethyl cyclohexane carboxylic acid] |  |  |  |  |  |  | DEPIGMENTATION EFFECT [1, 6]: Ⓞ (The number of subjects who judged the result was "extremely effective" and "effective" were not less than 80%.); MAINTENANCE OF MOISTURISING EFFECT [2, 8]: Ⓞ (The number of subjects who judged the result was "extremely effective" and "effective" were not less than 80 %.); MOISTURISING EFFECT [2, 8]: Ⓞ (The number of subjects who judged the result was "extremely effective" and "effective" were not less than 80 %.); TEXTURE OF SKIN SURFACE [2, 8]: Ⓞ (The number of subjects who judged the result was "extremely effective" and "effective" were not less than 80 %.)
NC[C@H]1CC[C@H](C(=O)O)CC1 [COMP.3, tranexamic acid] |  |  |  |  |  | △ (The number of subjects who judged the result was "extremely effective" and "effective" were from 30% to 50%.) | DEPIGMENTATION EFFECT [1, 6]: ○ (The number of subjects who judged the result was "extremely effective" and "effective" were from 50% to 80%.)
4'-hydroxy phenyl trans-4-aminomethyl cyclohexane carboxylate hydrochloride [EXM.3-2] |  |  |  |  |  | Ⓞ (The number of subjects who judged the result was "extremely effective" and "effective" were not less than 80%.) | MAINTENANCE OF MOISTURISING EFFECT [2, 9]: Ⓞ (The number of subjects who judged the result was "extremely effective" and "effective" were not less than 80 %.); MOISTURISING EFFECT [2, 9]: Ⓞ (The number of subjects who judged the result was "extremely effective" and "effective" were not less than 80 %.); TEXTURE OF SKIN SURFACE [2, 9]: Ⓞ (The number of subjects who judged the result was "extremely effective" and "effective" were not less than 80 %.)
NC[C@H]1CC[C@H](C(=O)Oc2ccc(O)cc2C(=O)O)CC1 [EXM.1-1, 2-(trans-4-aminomethylcyclohexylcarbonyloxy)-5-hydroxy benzoic acid] | Ⓞ (The number of subjects who judged the result was "extremely effective" and "effective" were not less than 80%.) | excellent | Ⓞ (The number of subjects who judged the result was "extremely effective" and "effective" were not less than 80 %.) | Ⓞ (The number of subjects who judged the result was "extremely effective" and "effective" were not less than 80 %.) | Ⓞ (The number of subjects who judged the result was "extremely effective" and "effective" were not less than 80 %.) |  | 
NC[C@H]1CC[C@H](C(=O)Oc2ccc(O)cc2)CC1 [EXM.3-1, 4'-hydroxy phenyl trans-4-aminomethyl cyclohexane carboxylate] |  |  |  |  |  | Ⓞ (The number of subjects who judged the result was "extremely effective" and "effective" were not less than 80%.) | MAINTENANCE OF MOISTURISING EFFECT [2, 9]: Ⓞ (The number of subjects who judged the result was "extremely effective" and "effective" were not less than 80 %.); MOISTURISING EFFECT [2, 9]: Ⓞ (The number of subjects who judged the result was "extremely effective" and "effective" were not less than 80 %.); TEXTURE OF SKIN SURFACE [2, 9]: Ⓞ (The number of subjects who judged the result was "extremely effective" and "effective" were not less than 80 %.)
Cl.NC[C@H]1CC[C@H](C(=O)Oc2ccc(O)cc2C(=O)O)CC1 [EXM.1-3, 2-(trans-4-aminomethylcyclohexylcarbonyloxy)-5-hydroxy benzoic acid hydrochloride] | Ⓞ (The number of subjects who judged the result was "extremely effective" and "effective" were not less than 80%.) | excellent | Ⓞ (The number of subjects who judged the result was "extremely effective" and "effective" were not less than 80 %.) | Ⓞ (The number of subjects who judged the result was "extremely effective" and "effective" were not less than 80 %.) | Ⓞ (The number of subjects who judged the result was "extremely effective" and "effective" were not less than 80 %.) |  | 

Reference: patent EP0604667A1, “TRANEXAMIC ACID DERIVATIVE AND DERMATOLOGIC PREPARATION CONTAINING THE SAME” (SHISEIDO COMPANY LIMITED, priority 1992, dated 1994)
